Results reported in US8987193B2, “Nisin derivatives and the use thereof” (University College Cork—National University of Ireland, Cork, priority 2008, dated 2015).
Entries after “also recorded” stand apart in the source; their conditions may differ. Ends that are not written are not given here.

How the values were obtained:
Type in all cases: cell-based
L. monocytogenes EGDe = assay: Deferred antagonism assay; parameters: key: −, no inhibition; (+), clear zone directly above the colony; +, 1-5 mm zone; ++, 6-10 mm zone; +++; settings: nisin strain; Listeria monocytogenes EDGe
Experimental: (§1) Deferred antagonism assays were performed by replicating strains on GM17 or GM17 x-gal agar plates and allowing them to grow overnight before overlaying with either GM17/BHI/TS/MH agar (0.75% w/v agar) seeded with the appropriate indicator strain. Zone size was calculated as the diameter of the zone of clearing minus the diameter of bacterial growth (5 mm) For higher throughput screening of N20PXX, XM21VX, XXK22T and XXX banks deferred antagonism assays were performed by replicating strains using a 96 pin replicator (Boekel) or spotting 5 μl of a fresh overnight culture on GM17 agar plates and allowing them to grow overnight. […] Additional sets of indicators were employed to further assess/reassess the bioactivity of a number of strains. […] For well-diffusion assays molten agar was cooled to 48° C. and seeded with the appropriate indicator strain. The inoculated medium was rapidly transferred into sterile Petri plates in 50 ml volumes, allowed to solidify and dried. Wells (4.6 mm in diameter) were then made in the seeded plates. Purified nisin and mutant nisins were resuspended in 0.005% acetic acid, serially diluted, 50 μl volumes were dispensed into the aforementioned wells and the plates incubated at 37° C. overnight. Bioactivity was expressed as arbitrary units/ml (AU/ml) and calculated as the reciprocal of the highest dilution that gave a definite zone multiplied by the conversion factor (i.e. 20 when 50 μl was used) (Ryan et al., 1996).

[1] = tested on: Listeria monocytogenes 33007; assay: Deferred antagonism assay; settings: nisin strain; L. monocytogenes 33007
Experimental: as §1

[2] = tested on: Listeria monocytogenes 33186; assay: Deferred antagonism assay; settings: nisin strain; L. monocytogenes 33186
Experimental: as §1

[3] = tested on: Listeria monocytogenes 33423; assay: Deferred antagonism assay; settings: nisin strain; L. monocytogenes 33423
Experimental: as §1

[4] = tested on: Listeria monocytogenes CD1038; assay: Deferred antagonism assay; settings: nisin strain; L. monocytogenes CD1038
Experimental: as §1

[5] = tested on: Listeria monocytogenes F2365; assay: Deferred antagonism assay; settings: nisin strain; L. monocytogenes F2365
Experimental: as §1

[6] = tested on: Listeria monocytogenes LO28; assay: Deferred antagonism assay; settings: nisin strain; L. monocytogenes LO28
Experimental: as §1

[7] = tested on: Listeria monocytogenes SLCC 6793; assay: Deferred antagonism assay; settings: nisin strain; L. monocytogenes SLCC 6793
Experimental: as §1

Listeria innocua CLIP = assay: Deferred antagonism assay; parameters: key: −, no inhibition; (+), clear zone directly above the colony; +, 1-5 mm zone; ++, 6-10 mm zone; +++, <10 mm zone; settings: nisin strain
Experimental: as §1

[8] = tested on: Listeria monocytogenes 33008; assay: Deferred antagonism assay; parameters: key: −, no inhibition; (+), clear zone directly above the colony; +, 1-5 mm zone; ++, 6-10 mm zone; +++, <10 mm zone; settings: nisin strain; L. monocytogenes 33008
Experimental: as §1

[9] = tested on: Listeria monocytogenes 33015; assay: Deferred antagonism assay; parameters: key: −, no inhibition; (+), clear zone directly above the colony; +, 1-5 mm zone; ++, 6-10 mm zone; +++, <10 mm zone; settings: nisin strain; L. monocytogenes 33015
Experimental: as §1

[10] = tested on: Listeria monocytogenes 33028; assay: Deferred antagonism assay; parameters: key: −, no inhibition; (+), clear zone directly above the colony; +, 1-5 mm zone; ++, 6-10 mm zone; +++, <10 mm zone; settings: nisin strain; L. monocytogenes 33028
Experimental: as §1

[11] = tested on: Listeria monocytogenes 33068; assay: Deferred antagonism assay; parameters: key: −, no inhibition; (+), clear zone directly above the colony; +, 1-5 mm zone; ++, 6-10 mm zone; +++, <10 mm zone; settings: nisin strain; L. monocytogenes 33068
Experimental: as §1

[12] = tested on: Listeria monocytogenes 33083; assay: Deferred antagonism assay; parameters: key: −, no inhibition; (+), clear zone directly above the colony; +, 1-5 mm zone; ++, 6-10 mm zone; +++, <10 mm zone; settings: nisin strain; L. monocytogenes 33083
Experimental: as §1

[13] = tested on: Listeria monocytogenes 33115; assay: Deferred antagonism assay; parameters: key: −, no inhibition; (+), clear zone directly above the colony; +, 1-5 mm zone; ++, 6-10 mm zone; +++, <10 mm zone; settings: nisin strain; L. monocytogenes 33115
Experimental: as §1

[14] = tested on: Listeria monocytogenes 33226; assay: Deferred antagonism assay; parameters: key: −, no inhibition; (+), clear zone directly above the colony; +, 1-5 mm zone; ++, 6-10 mm zone; +++, <10 mm zone; settings: nisin strain; L. monocytogenes 33226
Experimental: as §1

[15] = tested on: Listeria monocytogenes 33233; assay: Deferred antagonism assay; parameters: key: −, no inhibition; (+), clear zone directly above the colony; +, 1-5 mm zone; ++, 6-10 mm zone; +++, <10 mm zone; settings: nisin strain; L. monocytogenes 33233
Experimental: as §1

[16] = tested on: Listeria monocytogenes F6854; assay: Deferred antagonism assay; parameters: key: −, no inhibition; (+), clear zone directly above the colony; +, 1-5 mm zone; ++, 6-10 mm zone; +++, <10 mm zone; settings: nisin strain; L. monocytogenes F6854
Experimental: as §1

[17] = tested on: Listeria monocytogenes N3008; assay: Deferred antagonism assay; parameters: key: −, no inhibition; (+), clear zone directly above the colony; +, 1-5 mm zone; ++, 6-10 mm zone; +++, <10 mm zone; settings: nisin strain; L. monocytogenes N3008
Experimental: as §1

[18] = tested on: Listeria monocytogenes SLCC 7194; assay: Deferred antagonism assay; parameters: key: −, no inhibition; (+), clear zone directly above the colony; +, 1-5 mm zone; ++, 6-10 mm zone; +++, <10 mm zone; settings: nisin strain; L. monocytogenes SLCC 7194
Experimental: as §1

indicator strains = assay: Deferred antagonism assays, various indicator strains (summary); settings: for Strain(s) against which the derivative (producing strain) displays enhanced bioactivity: relative to nisin A-producing control, value = strains listed
How it was run: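 Producer strains were replicated on GM17 or GM17 x-gal agar, grown overnight, then overlaid with GM17, BHI, TS or MH soft agar (0.75% w/v) seeded with the indicator strain. Zone size was taken as the clearing diameter minus the diameter of bacterial growth (5 mm).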

For “NisinA K22A (ITSISLCTPGCKTGALMGCNMATATCHCSIHVSK; not fully specified; also: lantibiotic: lanthionine rings and dehydro residues not placed; UniProt P13068 24-57, looked up, variant K22A) [nisin A derivative, hinge substitution K22A]”, the “Activity score (zone)” value (L. monocytogenes EGDe) was “+ (+, 1-5 mm zone)”, the “Activity score (zone)” value [1] was “+ (+, 1-5 mm zone)” and the “Activity score (zone)” value [2] was “+ (+, 1-5 mm zone)”. The “Activity score (zone)” value [3] was “+ (+, 1-5 mm zone)”, the “Activity score (zone)” value [4] was “+ (+, 1-5 mm zone)” and the “Activity score (zone)” value [5] was “+ (+, 1-5 mm zone)”. The “Activity score (zone)” value [6] was “+ (+, 1-5 mm zone)”, the “Activity score (zone)” value [7] was “++ (++, 6-10 mm zone)” and the “Activity score (zone)” value (Listeria innocua CLIP) was “+ (+, 1-5 mm zone)”. The “Activity score (zone)” value [8] was “−”, the “Activity score (zone)” value [9] was “+ (+, 1-5 mm zone)” and the “Activity score (zone)” value [10] was “+ (+, 1-5 mm zone)”. For the same substance, the “Activity score (zone)” value [11] was “−”, the “Activity score (zone)” value [12] was “+ (+, 1-5 mm zone)” and the “Activity score (zone)” value [13] was “+ (+, 1-5 mm zone)”. The “Activity score (zone)” value [14] was “+ (+, 1-5 mm zone)”, the “Activity score (zone)” value [15] was “+ (+, 1-5 mm zone)” and the “Activity score (zone)” value [16] was “+ (+, 1-5 mm zone)”. For the same substance, the “Activity score (zone)” value [17] was “+ (+, 1-5 mm zone)”, the “Activity score (zone)” value [18] was “+ (+, 1-5 mm zone)” and the “Strain(s) against which the derivative (producing strain) displays enhanced bioactivity” value (“Strain(s) against which the derivative” for short) (indicator strains) was “L. monocytogenes K22A and L. lactis CBC8; also recorded: L. lactis CBC8 and L. monocytogenes CBC2 , and an additional 13 L. monocytogenes and 3 L. innocua; also recorded: additional 13 L. monocytogenes and 3 L. innocua, S. aureus; also recorded: ST528 and DPC5425, Strep. agalactiae ATCC 13813”.

In the case of “NisinA M21G (ITSISLCTPGCKTGALMGCNGKTATCHCSIHVSK; not fully specified; also: lantibiotic: lanthionine rings and dehydro residues not placed; UniProt P13068 24-57, looked up, variant M21G) [nisin A derivative, hinge substitution M21G]”, the “Activity score (zone)” value (L. monocytogenes EGDe) is reported as “−”, the “Activity score (zone)” value [1] is reported as “+ (+, 1-5 mm zone)” and the “Activity score (zone)” value [2] is reported as “+ (+, 1-5 mm zone)”. For the same substance, the “Activity score (zone)” value [3] was “+ (+, 1-5 mm zone)”, the “Activity score (zone)” value [4] was “+ (+, 1-5 mm zone)” and the “Activity score (zone)” value [5] was “+ (+, 1-5 mm zone)”. For the same substance, the “Activity score (zone)” value [6] was “+ (+, 1-5 mm zone)”, the “Activity score (zone)” value [7] was “++ (++, 6-10 mm zone)” and the “Activity score (zone)” value (Listeria innocua CLIP) was “+ (+, 1-5 mm zone)”. For the same substance, the “Activity score (zone)” value [8] was “−”, the “Activity score (zone)” value [9] was “−” and the “Activity score (zone)” value [10] was “−”. The “Activity score (zone)” value [11] was “−”, the “Activity score (zone)” value [12] was “−” and the “Activity score (zone)” value [13] was “−”. For the same substance, the “Activity score (zone)” value [14] was “−”, the “Activity score (zone)” value [15] was “−” and the “Activity score (zone)” value [16] was “−”. The “Activity score (zone)” value [17] was “−”, the “Activity score (zone)” value [18] was “−” and the “relative bioactivity against the indicators of Table 6” value (indicator strains; Staph. aureus ST528, DPC5245 and Strep. agalactiae ATCC 13813 taken together) was “approximately 120%”. For the same substance, the “Strain(s) against which the derivative” value (indicator strains) was “L. monocytogenes CBC2, Staph. aureus CBC4 and C. sporogenes CBC5; also recorded: L. monocytogenes CBC2 , S. aureus CBC4, ST528 , and DPC5425, Strep. agalactiae ATCC 13813, C. sporogenes CBC5 + an additional 7 L. monocytogenes and 3 L. innocua”.

For “NisinA M21I (ITSISLCTPGCKTGALMGCNIKTATCHCSIHVSK; not fully specified; also: lantibiotic: lanthionine rings and dehydro residues not placed; UniProt P13068 24-57, looked up, variant M21I) [nisin A derivative, hinge substitution M21I]”, the “Activity score (zone)” value (L. monocytogenes EGDe) was “+ (+, 1-5 mm zone)”, the “Activity score (zone)” value [1] was “++ (++, 6-10 mm zone)” and the “Activity score (zone)” value [2] was “+ (+, 1-5 mm zone)”. The “Activity score (zone)” value [3] was “+ (+, 1-5 mm zone)”, the “Activity score (zone)” value [4] was “++ (++, 6-10 mm zone)” and the “Activity score (zone)” value [5] was “+ (+, 1-5 mm zone)”. The “Activity score (zone)” value [6] was “++ (++, 6-10 mm zone)”, the “Activity score (zone)” value [7] was “+++ (+++, <10 mm zone)” and the “Activity score (zone)” value (Listeria innocua CLIP) was “−”. For the same substance, the “Activity score (zone)” value [8] was “−”, the “Activity score (zone)” value [9] was “+ (+, 1-5 mm zone)” and the “Activity score (zone)” value [10] was “+ (+, 1-5 mm zone)”. For the same substance, the “Activity score (zone)” value [11] was “−”, the “Activity score (zone)” value [12] was “+ (+, 1-5 mm zone)” and the “Activity score (zone)” value [13] was “−”. For the same substance, the “Activity score (zone)” value [14] was “+ (+, 1-5 mm zone)”, the “Activity score (zone)” value [15] was “+ (+, 1-5 mm zone)” and the “Activity score (zone)” value [16] was “+ (+, 1-5 mm zone)”. The “Activity score (zone)” value [17] was “+ (+, 1-5 mm zone)”, the “Activity score (zone)” value [18] was “+ (+, 1-5 mm zone)” and the “Strain(s) against which the derivative” value (indicator strains) was “L. momocytogenes CBC2, Staph. aureus CBC4, C. sporogenes CBC5, L. lactis CBC7 and CBC8; also recorded: L. monocytogenes CBC2, S. aureus CBC4, C. sporogenes CBC5, L. lactis CBC7 and an additional 15 L. monocytogenes and 2 L. innocua”.
